According to patent publication US20260184715A1, “NOVEL PYRROLO[1,2-d][1,2,4] TRIAZINONE DERIVATIVES AS NEGATIVE ALLOSTERIC MODULATORS OF MGLU7 RECEPTORS” (Neurosterix Pharma Sarl., priority 2022, published 2026):

Molecular target: T1, human metabotropic glutamate 7 receptor (hmGlu7) (Homo sapiens, UniProt Q14831)
T1 construct: expressed in transfected cells
Test: mGlu7 assay on HEK-expressing human mGlu7: fluorescent cell based-Ca2+ mobilization assay (FLIPR), inhibition of EC80 L-AP4 response
Conditions: HEK-293 cells expressing hmGlu7, EC80 L-AP4; mean of at least three independent experiments in duplicate; read-out: Ca^2+ Flux (mean IC50)
Text: mGlu7 Assay on HEK-Expressing Human mGLU7
The cDNA encoding the human metabotropic glutamate 7 receptor (hmGlu7), (accession number NM_181874.2, NCBI Nucleotide database browser), was subcloned into an expression vector containing also the hygromycin resistance gene. In parallel, the cDNA encoding a G protein allowing redirection of the activation signal to intracellular calcium flux was subcloned into a different expression vector containing also the Puromycin resistance gene. Transfection of both these vectors into HEK293 cells with PolyFect reagent (Qiagen) according to supplier's protocol, and hygromycin and puromycin treatment allowed selection of antibiotic resistant cells which had integrated stably one or more copies of the plasmids. Positive cellular clones expressing hmGlu7 were identified in a functional assay measuring changes in calcium fluxes in response to glutamate and L-AP4 or known mGlu7 orthosteric antagonists.
HEK-293 cells expressing hmGlu7 were maintained in media containing DMEM, Fetal Bovine Serum (10%), GlutaMAX™ (2 mM), penicillin (100 units/mL), streptomycin (100 μg/mL), geneticin (100 μg/mL) and hygromycin-B (40 μg/mL) and puromycin (1 μg/mL) at 37° C. with 5% CO2 in a humidified atmosphere.
Human mGlu7 HEK-293 cells were plated out 24 hours prior to a fluorescent cell-based calcium mobilization assay using FLIPR^384 assay (Molecular Device, Sunnyvale, CA, USA) in black-walled, clear-bottomed, poly-L-ornithine-coated 384-well plates at a density of 25,000 cells/well in a glutamine/glutamate free DMEM medium containing fetal bovine serum (10%), penicillin (100 units/mL), streptomycin (100 μg/mL) and doxycyline (1 μg/ml) at 37° C. with 5% CO2 in a humidified atmosphere.
On the day of the assay, the medium was aspirated and the cells were loaded with a 3 μM solution of Fluo4-AM (LuBioScience, Lucerne, Switzerland) in 0.03% pluronic acid. After 1 hour at 37° C./5% CO2, the non incorporated dye was removed by washing cell plate with the assay buffer. All assays were performed in a pH 7.4 buffered-Solution containing 20 mM HEPES, 143 mM NaCl, 6 mM KCl, 1 mM MgSO4, 1 mM CaCl2, 0.125 mM sulfinpyrazone and 0.1% glucose.
After 10 s of basal fluorescence recording, various concentrations of the compounds of the invention were added to the cells. Changes in fluorescence levels were first monitored for 180 s in order to detect any agonist activity of the compounds. Then the cells were stimulated by an EC80 L-AP4 concentration for an additional 110 s in order to measure inhibiting activities of the compounds of the invention. EC80 L-AP4 concentration is the concentration giving 80% of the maximal glutamate response.
The concentration-response curves of L-AP4 or representative compounds of the present invention were generated using the Prism GraphPad software (Graph Pad Inc, San Diego, USA). The curves were fitted to a four-parameter logistic equation:
(Y=Bottom+(Top−Bottom)/(1+10^((Log IC50−X)*Hill Slope)
allowing determination of IC50 values.
The Table 3 below represents the mean IC50 obtained from at least three independent experiments of selected molecules performed in duplicate.

T1 sequence (Q14831 35-922 isoform Q14831-2 limits assumed): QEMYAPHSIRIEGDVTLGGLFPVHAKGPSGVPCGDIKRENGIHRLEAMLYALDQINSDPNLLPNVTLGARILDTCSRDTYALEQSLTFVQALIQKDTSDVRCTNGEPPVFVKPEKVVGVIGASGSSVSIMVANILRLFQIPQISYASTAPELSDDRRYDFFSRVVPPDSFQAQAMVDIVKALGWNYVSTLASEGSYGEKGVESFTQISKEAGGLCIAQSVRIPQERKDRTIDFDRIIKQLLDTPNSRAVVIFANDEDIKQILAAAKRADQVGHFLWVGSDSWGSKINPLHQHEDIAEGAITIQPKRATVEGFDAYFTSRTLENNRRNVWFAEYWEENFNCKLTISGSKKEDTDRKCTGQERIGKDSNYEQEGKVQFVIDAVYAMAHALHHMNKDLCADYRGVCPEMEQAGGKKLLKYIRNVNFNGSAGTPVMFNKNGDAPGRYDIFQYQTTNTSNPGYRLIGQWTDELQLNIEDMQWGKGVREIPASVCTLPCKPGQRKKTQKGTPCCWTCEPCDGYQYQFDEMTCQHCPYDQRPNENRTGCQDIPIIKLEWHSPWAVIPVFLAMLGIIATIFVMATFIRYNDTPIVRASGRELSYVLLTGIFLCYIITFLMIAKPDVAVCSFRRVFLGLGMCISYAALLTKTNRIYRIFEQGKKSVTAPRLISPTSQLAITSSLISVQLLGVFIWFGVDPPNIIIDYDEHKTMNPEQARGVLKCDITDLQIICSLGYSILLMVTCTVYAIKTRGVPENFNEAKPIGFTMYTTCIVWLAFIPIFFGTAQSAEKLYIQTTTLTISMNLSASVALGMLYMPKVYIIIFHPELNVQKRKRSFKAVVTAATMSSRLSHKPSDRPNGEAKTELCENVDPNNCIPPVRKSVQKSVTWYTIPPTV

Structure (SMILES) | IC50 [nM]
Cc1c(-c2cccc3c2CCO3)cc2cnn(-c3ccccn3)c(=O)n12 [1-69] | < 100
Cc1c(-c2cccc(OC(F)F)c2)cc2cnn(-c3ccccn3)c(=O)n12 [1-70] | 100 to 1000
Cc1c(OC(F)F)cccc1-c1cc2cnn(-c3ccccn3)c(=O)n2c1C [1-71] | < 100
COc1cccc(-c2cc3cnn(-c4ccccn4)c(=O)n3c2C)c1C [1-72] | < 100
COc1cccc(-c2cc3cnn(-c4ccccn4)c(=O)n3c2C)c1Cl [1-73] | < 100
Cc1c(-c2cccc(OC(F)F)c2)cc2cnn(-c3ncccn3)c(=O)n12 [1-74] | < 100
COc1cccc(-c2cc3cnn(-c4ncccn4)c(=O)n3c2C)c1Cl [1-77] | < 100
Cc1c(-c2cccc3c2CC(=O)N3C)cc2cnn(-c3ccccn3)c(=O)n12 [1-78] | < 100
Cc1c(OC2CC2)cccc1-c1cc2cnn(-c3ccccn3)c(=O)n2c1 [1-82] | 100 to 1000
Cc1c(-c2cccc(OC3CC3)c2)cc2cnn(-c3ccccn3)c(=O)n12 [1-83] | 1000 to 10000
Cc1c(OC2CC2)cccc1-c1cc2cnn(-c3ccccn3)c(=O)n2c1C [1-84] | 100 to 1000
Cc1c(-c2cccc(OC3CC3)c2)cc2cnn(-c3ncccn3)c(=O)n12 [1-88] | < 100
COc1cc(F)cc(-c2cc3cnn(-c4ccccn4)c(=O)n3c2C)c1 [1-101] | 100 to 1000
COc1ccc(F)c(-c2cc3cnn(-c4ccccn4)c(=O)n3c2C)c1 [1-102] | < 100
COc1cc(F)cc(-c2cc3cnn(-c4ncccn4)c(=O)n3c2C)c1 [1-103] | < 100
Cc1c(-c2cccc(OC3CC3)c2Cl)cc2cnn(-c3ccccn3)c(=O)n12 [1-104] | < 100
COc1ccc(F)c(-c2cc3cnn(-c4ncccn4)c(=O)n3c2C)c1 [1-105] | 100 to 1000
COc1cc(-c2cc3cnn(-c4ccccn4)c(=O)n3c2C)ccn1 [1-106] | < 100
COc1cc(-c2cc3cnn(-c4ccccn4)c(=O)n3c2C)ccc1F [1-107] | < 100

Structure (SMILES) | IC50 [nM]
COc1cccc(-c2cc3cnn(-c4ccccn4)c(=O)n3c2C)c1F [1-108] | 100 to 1000
Cc1c(-c2cccc(OC3CC3)c2F)cc2cnn(-c3ccccn3)c(=O)n12 [1-109] | < 100
COc1cc(-c2cc3cnn(-c4ncccn4)c(=O)n3c2C)ccc1F [1-111] | < 100
COc1cccc(-c2cc3cnn(-c4ncccn4)c(=O)n3c2C)c1F [1-112] | 100 to 1000
COc1cc(-c2cc3cnn(-c4ncccn4)c(=O)n3c2C)ccn1 [1-114] | < 100
COc1cccc(-c2c(Br)c3cnn(-c4ccccn4)c(=O)n3c2C)c1F [1-115, 8-bromo-7-(2-fluoro-3-methoxy-phenyl)-6-methyl-3-(2-pyridyl)pyrrolo[1,2-d][1,2,4]triazin-4-one] | 100 to 1000
COc1nccc(-c2cc3cnn(-c4ccccn4)c(=O)n3c2C)c1F [1-116] | 100 to 1000
COc1nccc(-c2cc3cnn(-c4ncccn4)c(=O)n3c2C)c1F [1-117] | < 100
Cc1c(-c2ccnc3c2CCN3C)cc2cnn(-c3ccccn3)c(=O)n12 [1-118, 6-methyl-7-(1-methyl-2,3-dihydropyrrolo[2,3-b]pyridin-4-yl)-3-(2-pyridyl)pyrrolo[1,2-d][1,2,4]triazin-4-one] | < 100
COc1ccc(F)c(-c2c(C)c3cnn(-c4ccccn4)c(=O)n3c2C)c1 [1-126] | 100 to 1000
COc1ccc(-c2c(C)c3cnn(-c4ccccn4)c(=O)n3c2C)cn1 [1-129] | < 100
COc1ccc(-c2c(C)c3cnn(-c4ccccn4)c(=O)n3c2C)cc1 [1-130] | 100 to 1000
Cc1c(-c2cccc(N3C4CCC3CC4)c2)c(C)n2c(=O)n(-c3ncccn3)ncc12 [1-131] | 100 to 1000
COc1ccc(-c2c(C)c3cnn(-c4ccccn4)c(=O)n3c2C)c(F)c1 [1-136] | < 100
Cc1c(-c2ccnc(OC(F)F)c2)c(C)n2c(=O)n(-c3ccccn3)ncc12 [1-140] | 100 to 1000
COc1ccc(-c2cc3cnn(-c4ccccn4)c(=O)n3c2C)cn1 [1-142] | 100 to 1000
Cc1c(-c2cc3cnn(-c4ccccn4)c(=O)n3c2C)ccnc1OC1CC1 [1-143] | < 100
COc1ccc(-c2cc3cnn(-c4ncccn4)c(=O)n3c2C)cn1 [1-144] | 100 to 1000

Next, values leading:

IC50 [nM] | Structure (SMILES)
< 100 | Cc1c(OC(F)F)cccc1-c1cc2cnn(-c3ncccn3)c(=O)n2c1C [1-75]
< 100 | COc1cccc(-c2cc3cnn(-c4ncccn4)c(=O)n3c2C)c1C [1-76]
1000 to 10000 | Cc1ccc(-c2c(C)c3cnn(-c4ncccn4)c(=O)n3c2C)c(C)c1 [1-79]
100 to 1000 | Cc1c(-c2cccc(OC3CC3)c2)c(C)n2c(=O)n(-c3ncc(N4CCC(O)C4)cn3)ncc12 (stereo not drawn) [1-80]
100 to 1000 | Cc1c(-c2cccc(OC3CC3)c2)c(C)n2c(=O)n(-c3ncc(N)cn3)ncc12 [1-81]
100 to 1000 | Cc1c(OC2CC2)cccc1-c1cc2cnn(-c3ncccn3)c(=O)n2c1C [1-85]
100 to 1000 | Cc1c(-c2cccc3c2CCCN3C)c(C)n2c(=O)n(-c3ncccn3)ncc12 [1-86]
100 to 1000 | Cc1c(-c2cccc3c2CCN3C)c(C)n2c(=O)n(-c3ncccn3)ncc12 [1-87]
< 100 | Cc1c(-c2cccc3c2CCCN3C)cc2cnn(-c3ncccn3)c(=O)n12 [1-89]
< 100 | Cc1c(-c2cccc3c2CCN3C)cc2cnn(-c3ncccn3)c(=O)n12 [1-90]
< 100 | Cc1ccc(OC2CC2)cc1-c1c(C)c2cnn(-c3ncccn3)c(=O)n2c1C [1-93]
100 to 1000 | CCn1ncc2c(C)c(-c3cccc4c3CCCN4C)c(C)n2c1=O [1-94]
100 to 1000 | COc1cccc(-c2c(C)c3cnn(-c4ncccn4)c(=O)n3c2C)c1C [1-95]
< 100 | Cc1c(-c2cccc3c2ccn3C2CC2)c(C)n2c(=O)n(-c3ncccn3)ncc12 [1-96]
100 to 1000 | Cc1c(-c2cccc3c2ccn3C)c(C)n2c(=O)n(-c3ncccn3)ncc12 [1-97]
100 to 1000 | COc1cccc(-c2c(C)c3cnn(-c4ncccn4)c(=O)n3c2C)n1 [1-98]
100 to 1000 | Cc1c(-c2cccc3c2CCN3C2CC2)c(C)n2c(=O)n(-c3ncccn3)ncc12 [1-99]
100 to 1000 | CCn1ncc2c(C)c(-c3cccc4c3CCN4C)c(C)n2c1=O [1-100]

IC50 [nM] | Structure (SMILES)
< 100 | Cc1c(-c2cccc(OC3CC3)c2Cl)cc2cnn(-c3ncccn3)c(=O)n12 [1-110]
100 to 1000 | Cc1c(-c2ccnc3c2CCN3C)cc2cnn(-c3ncccn3)c(=O)n12 [1-119]
100 to 1000 | Cc1c(OC(F)F)cccc1-c1c(C)c2cnn(-c3ncccn3)c(=O)n2c1C [1-120]
100 to 1000 | Cc1c(-c2cccc3c2CCCN3C2CC2)c(C)n2c(=O)n(-c3ncccn3)ncc12 [1-121]
100 to 1000 | COc1ccc(-c2c(C)c3cnn(-c4ncccn4)c(=O)n3c2C)cc1 [1-122]
< 100 | Cc1c(-c2cccc(F)c2Cl)c(C)n2c(=O)n(-c3ncccn3)ncc12 [1-123]
100 to 1000 | Cc1c(-c2cccc(OC3CCC3)c2)c(C)n2c(=O)n(-c3ncccn3)ncc12 [1-124]
100 to 1000 | Cc1c(-c2cccc(OC3CC3)c2F)c(C)n2c(=O)n(-c3ncccn3)ncc12 [1-125]
< 100 | COc1ccc(F)c(-c2c(C)c3cnn(-c4ncccn4)c(=O)n3c2C)c1 [1-127]
< 100 | COc1ccc(-c2c(C)c3cnn(-c4ncccn4)c(=O)n3c2C)cn1 [1-132]
100 to 1000 | COc1cccc(-c2c(C)c3cnn(-c4ncccn4)c(=O)n3c2C)c1F [1-133]
< 100 | COc1ccc(-c2c(C)c3cnn(-c4ncccn4)c(=O)n3c2C)c(C)c1 [1-134]
< 100 | COc1ccc(-c2c(C)c3cnn(-c4ncccn4)c(=O)n3c2C)c(F)c1 [1-135]
100 to 1000 | COc1ccc(-c2c(C)c3cnn(-c4ncccn4)c(=O)n3c2C)c(C)n1 [1-137]
100 to 1000 | COc1nccc(-c2c(C)c3cnn(-c4ncccn4)c(=O)n3c2C)c1F [1-138]
100 to 1000 | COc1cc(-c2c(C)c3cnn(-c4ncccn4)c(=O)n3c2C)ccn1 [1-139]
1000 to 10000 | Cc1c(-c2ccnc(OC(F)F)c2)c(C)n2c(=O)n(-c3ncccn3)ncc12 [1-141]
